Data taken from PubChem BioAssay (NCI).
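Compound exposure: 48 hours, 5 concentrations, 96-well plates. Abbreviation: GI50, concentration required for 50% inhibition of growth. TGI: concentration producing complete growth inhibition.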

How the values were obtained:
Assay in all cases: NCI-60 cell line screen, 48 h
RPMI-8226 leukemia = tested on: RPMI-8226 leukemia
KM12 colon = tested on: KM12 colon
MDA-MB-231 breast = tested on: MDA-MB-231 breast
NCI/ADR-RES ovarian = tested on: NCI/ADR-RES ovarian
786-0 renal = tested on: 786-0 renal
HCT-15 colon = tested on: HCT-15 colon
MALME-3M melanoma = tested on: MALME-3M melanoma
SF-539 CNS = tested on: SF-539 CNS
MOLT-4 leukemia = tested on: MOLT-4 leukemia
TK-10 renal = tested on: TK-10 renal
NCI-H522 lung = tested on: NCI-H522 lung
SW-620 colon = tested on: SW-620 colon
NCI-H460 lung = tested on: NCI-H460 lung
OVCAR-4 ovarian = tested on: OVCAR-4 ovarian
ACHN renal = tested on: ACHN renal
SNB-75 CNS = tested on: SNB-75 CNS
UACC-62 melanoma = tested on: UACC-62 melanoma
A498 renal = tested on: A498 renal
OVCAR-5 ovarian = tested on: OVCAR-5 ovarian
SR leukemia = tested on: SR leukemia
MCF7 breast = tested on: MCF7 breast
OVCAR-8 ovarian = tested on: OVCAR-8 ovarian
BT-549 breast = tested on: BT-549 breast
SN12C renal = tested on: SN12C renal
MDA-MB-435 = tested on: MDA-MB-435
NCI-H23 lung = tested on: NCI-H23 lung
A549 NSCLC = tested on: A549 NSCLC
UO-31 renal = tested on: UO-31 renal
HS 578T breast = tested on: HS 578T breast
NCI-H226 lung = tested on: NCI-H226 lung
M14 melanoma = tested on: M14 melanoma
SF-268 CNS = tested on: SF-268 CNS
HCT-116 colon = tested on: HCT-116 colon
IGROV1 ovarian = tested on: IGROV1 ovarian
UACC-257 melanoma = tested on: UACC-257 melanoma
DU-145 prostate = tested on: DU-145 prostate
HOP-62 NSCLC = tested on: HOP-62 NSCLC
LOX IMVI melanoma = tested on: LOX IMVI melanoma
SK-MEL-2 melanoma = tested on: SK-MEL-2 melanoma
T-47D breast = tested on: T-47D breast
HT29 colon = tested on: HT29 colon
SK-MEL-5 melanoma = tested on: SK-MEL-5 melanoma
SK-MEL-28 melanoma = tested on: SK-MEL-28 melanoma
U251 CNS = tested on: U251 CNS
RXF 393 renal = tested on: RXF 393 renal
COLO 205 colon = tested on: COLO 205 colon
SF-295 CNS = tested on: SF-295 CNS
SNB-19 CNS = tested on: SNB-19 CNS
HCC-2998 colon = tested on: HCC-2998 colon
PC-3 prostate = tested on: PC-3 prostate
SK-OV-3 ovarian = tested on: SK-OV-3 ovarian
CCRF-CEM leukemia = tested on: CCRF-CEM leukemia
CAKI-1 renal = tested on: CAKI-1 renal
OVCAR-3 ovarian = tested on: OVCAR-3 ovarian
EKVX NSCLC = tested on: EKVX NSCLC
K-562 leukemia = tested on: K-562 leukemia

## COc1ccc(-c2nn(-c3cccc(NC(=O)Nc4ccc(Cl)c(C(F)(F)F)c4)c3)cc2-c2ccncc2)cc1Cl
RPMI-8226 leukemia
  GI50: 1.43 µM
  TGI: 5.29 µM
KM12 colon
  GI50: 2 µM
  TGI: 8.55 µM
MDA-MB-231 breast
  GI50: 2.29 µM
  TGI: 7.35 µM
NCI/ADR-RES ovarian
  GI50: 2.62 µM
  TGI: 9.84 µM
786-0 renal
  GI50: 1.91 µM
  TGI: 4.49 µM
HCT-15 colon
  GI50: 2.37 µM
  TGI: 19.2 µM
MALME-3M melanoma
  GI50: 2.27 µM
  TGI: 7.58 µM
SF-539 CNS
  GI50: 2.04 µM
  TGI: 5.11 µM
MOLT-4 leukemia
  GI50: 2.08 µM
  TGI: 6.74 µM
TK-10 renal
  GI50: 4.8 µM
  TGI: 92.2 µM
NCI-H522 lung
  GI50: 1.85 µM
  TGI: 6.77 µM
SW-620 colon
  GI50: 3.66 µM
  TGI: 63.9 µM
NCI-H460 lung
  GI50: 1.99 µM
  TGI: 8.99 µM
OVCAR-4 ovarian
  GI50: 2.9 µM
  TGI: 9.8 µM
ACHN renal
  GI50: 2.32 µM
  TGI: 13.8 µM
SNB-75 CNS
  GI50: 1.91 µM
  TGI: 9.56 µM
UACC-62 melanoma
  GI50: 1.93 µM
  TGI: 5.01 µM
A498 renal
  GI50: 2.4 µM
  TGI: 8.01 µM
OVCAR-5 ovarian
  GI50: 4.36 µM
  TGI: 30.8 µM
SR leukemia
  GI50: 1.82 µM
  TGI: 5.65 µM
MCF7 breast
  GI50: 2.19 µM
  TGI: 13.7 µM
OVCAR-8 ovarian
  GI50: 2.43 µM
  TGI: 13.1 µM
BT-549 breast
  GI50: 2.08 µM
  TGI: 4.83 µM
SN12C renal
  GI50: 2.99 µM
  TGI: > 100 µM
MDA-MB-435
  GI50: 2.16 µM
  TGI: 5.92 µM
NCI-H23 lung
  GI50: 3.01 µM
  TGI: 14.3 µM
A549 NSCLC
  GI50: 1.98 µM
  TGI: > 100 µM
UO-31 renal
  GI50: 2.12 µM
  TGI: 13.3 µM
HS 578T breast
  GI50: 2.27 µM
  TGI: 9.3 µM
NCI-H226 lung
  GI50: 2.53 µM
  TGI: 8.22 µM
M14 melanoma
  GI50: 1.9 µM
  TGI: 4.44 µM
SF-268 CNS
  GI50: 4.21 µM
  TGI: 35.9 µM
HCT-116 colon
  GI50: 2.02 µM
  TGI: 8.6 µM
IGROV1 ovarian
  GI50: 3.65 µM
  TGI: 29.5 µM
UACC-257 melanoma
  GI50: 2.44 µM
  TGI: 7.42 µM
DU-145 prostate
  GI50: 4.47 µM
  TGI: > 100 µM
HOP-62 NSCLC
  GI50: 3.37 µM
  TGI: 17.3 µM
LOX IMVI melanoma
  GI50: 2.95 µM
  TGI: 10.6 µM
SK-MEL-2 melanoma
  GI50: 2.77 µM
  TGI: 5.71 µM
T-47D breast
  GI50: 2.22 µM
  TGI: > 100 µM
HT29 colon
  GI50: 3.18 µM
  TGI: 13.1 µM
SK-MEL-5 melanoma
  GI50: 1.69 µM
  TGI: 3.61 µM
SK-MEL-28 melanoma
  GI50: 3.08 µM
  TGI: 13.3 µM
U251 CNS
  GI50: 1.32 µM
  TGI: 3.34 µM
RXF 393 renal
  GI50: 1.42 µM
  TGI: 4.83 µM
COLO 205 colon
  GI50: 2.01 µM
  TGI: 4.2 µM
SF-295 CNS
  GI50: 2.31 µM
  TGI: 7.23 µM
SNB-19 CNS
  GI50: 3.77 µM
  TGI: > 100 µM
HCC-2998 colon
  GI50: 5.51 µM
  TGI: 27 µM
PC-3 prostate
  GI50: 1.32 µM
  TGI: 6.85 µM
SK-OV-3 ovarian
  GI50: 4.31 µM
  TGI: > 100 µM
CCRF-CEM leukemia
  GI50: 1.9 µM
  TGI: 6.4 µM
CAKI-1 renal
  GI50: 2.18 µM
  TGI: > 100 µM

## Cn1cccc1-c1cc(-c2cccs2)[nH]c(=O)c1C#N
RPMI-8226 leukemia
  GI50: > 100 µM
  TGI: > 100 µM
KM12 colon
  GI50: > 100 µM
  TGI: > 100 µM
MDA-MB-231 breast
  GI50: > 100 µM
  TGI: > 100 µM
OVCAR-3 ovarian
  GI50: > 100 µM
  TGI: > 100 µM
NCI/ADR-RES ovarian
  GI50: > 100 µM
  TGI: > 100 µM
786-0 renal
  GI50: > 100 µM
  TGI: > 100 µM
EKVX NSCLC
  GI50: 52.3 µM
  TGI: > 100 µM
HCT-15 colon
  GI50: > 100 µM
  TGI: > 100 µM
MALME-3M melanoma
  GI50: > 100 µM
  TGI: > 100 µM
SF-539 CNS
  GI50: > 100 µM
  TGI: > 100 µM
MOLT-4 leukemia
  GI50: > 100 µM
  TGI: > 100 µM
TK-10 renal
  GI50: > 100 µM
  TGI: > 100 µM
NCI-H522 lung
  GI50: 25.9 µM
  TGI: > 100 µM
SW-620 colon
  GI50: > 100 µM
  TGI: > 100 µM
NCI-H460 lung
  GI50: 69.6 µM
  TGI: > 100 µM
OVCAR-4 ovarian
  GI50: > 100 µM
  TGI: > 100 µM
ACHN renal
  GI50: > 100 µM
  TGI: > 100 µM
SNB-75 CNS
  GI50: 37.7 µM
  TGI: > 100 µM
UACC-62 melanoma
  GI50: 73.1 µM
  TGI: > 100 µM
A498 renal
  GI50: 17.9 µM
  TGI: > 100 µM
OVCAR-5 ovarian
  GI50: > 100 µM
  TGI: > 100 µM
SR leukemia
  GI50: > 100 µM
  TGI: > 100 µM
MCF7 breast
  GI50: > 100 µM
  TGI: > 100 µM
OVCAR-8 ovarian
  GI50: > 100 µM
  TGI: > 100 µM
BT-549 breast
  GI50: > 100 µM
  TGI: > 100 µM
SN12C renal
  GI50: > 100 µM
  TGI: > 100 µM
MDA-MB-435
  GI50: > 100 µM
  TGI: > 100 µM
NCI-H23 lung
  GI50: > 100 µM
  TGI: > 100 µM
A549 NSCLC
  GI50: > 100 µM
  TGI: > 100 µM
UO-31 renal
  GI50: 13.8 µM
  TGI: 27.5 µM
HS 578T breast
  GI50: > 100 µM
  TGI: > 100 µM
NCI-H226 lung
  GI50: > 100 µM
  TGI: > 100 µM
SF-268 CNS
  GI50: 20.6 µM
  TGI: > 100 µM
HCT-116 colon
  GI50: > 100 µM
  TGI: > 100 µM
K-562 leukemia
  GI50: > 100 µM
  TGI: > 100 µM
IGROV1 ovarian
  GI50: 23 µM
  TGI: > 100 µM
UACC-257 melanoma
  GI50: > 100 µM
  TGI: > 100 µM
DU-145 prostate
  GI50: > 100 µM
  TGI: > 100 µM
HOP-62 NSCLC
  GI50: 83.9 µM
  TGI: > 100 µM
LOX IMVI melanoma
  GI50: > 100 µM
  TGI: > 100 µM
SK-MEL-2 melanoma
  GI50: > 100 µM
  TGI: > 100 µM
T-47D breast
  GI50: > 100 µM
  TGI: > 100 µM
HT29 colon
  GI50: > 100 µM
  TGI: > 100 µM
SK-MEL-5 melanoma
  GI50: > 100 µM
  TGI: > 100 µM
SK-MEL-28 melanoma
  GI50: > 100 µM
  TGI: > 100 µM
U251 CNS
  GI50: > 100 µM
  TGI: > 100 µM
RXF 393 renal
  GI50: > 100 µM
  TGI: > 100 µM
COLO 205 colon
  GI50: > 100 µM
  TGI: > 100 µM
SF-295 CNS
  GI50: > 100 µM
  TGI: > 100 µM
SNB-19 CNS
  GI50: > 100 µM
  TGI: > 100 µM
HCC-2998 colon
  GI50: > 100 µM
  TGI: > 100 µM
PC-3 prostate
  GI50: > 100 µM
  TGI: > 100 µM
SK-OV-3 ovarian
  GI50: > 100 µM
  TGI: > 100 µM
CCRF-CEM leukemia
  GI50: > 100 µM
  TGI: > 100 µM
CAKI-1 renal
  GI50: > 100 µM
  TGI: > 100 µM
